Test results as given in US12219958B2, “Glufosinate additive for improved weed control” (THE BOARD OF TRUSTEES OF THE UNIVERSITY OF ARKANSAS, priority 2019, dated 2025).
Where a name gives a salt, the structure may show the parent alone.

Legend:
Palmer amaranth = experiment: Field experiment, Palmer amaranth control with glufosinate + additive at 10 pm (Example 5, FIG. 11); format: in vivo, Amaranthus palmeri
[1] = test system: Enlist cotton, XtendFlex cotton, LibertyLink GT27 soybean, and LibertyLink corn; details: in vivo
johnsongrass = experiment: Field experiment, johnsongrass control with glufosinate + additive at 10 pm (Example 5, FIG. 12); format: in vivo
[2] = test system: Enlist cotton, XtendFlex cotton, LibertyLink GT27 soybean, and LibertyLink corn; details: in vivo; remark: listed apart in the source
[3] = test system: native large crabgrass populations; experiment: Field experiment, large crabgrass control (Examples 2 and 3, FIG. 6); format: in vivo; details: added to glufosinate 655 g ai/ha; saflufenacil 1 g ai/ha, acifluorfen 14 g ai/ha; 10 pm
[4] = test system: native mixture of Palmer amaranth and waterhemp; set-up: species or system Amaranthus palmeri, Amaranthus tuberculatus; details: in vivo

| Structure (SMILES) | increase in glufosinate efficacy of Palmer amaranth (Palmer amaranth; in vivo) | crop response [1] | increase in glufosinate efficacy of johnsongrass (johnsongrass; in vivo) | crop impact of glufosinate and the additive applied during the day [2] | crop injury when applied at 10 pm versus 10 am [2] | effect of the additive on reductions in weed control due to low-light intensity [3] | effect of the additive on reductions in weed control due to low-light intensity [4] | increase in glufosinate efficacy of Palmer amaranth (Palmer amaranth; low-light conditions (10 pm), glufosinate 655 g ai/ha + additive 280 g ai/ha, 25 to 30-cm tall Palmer amaranth) | increase in glufosinate efficacy of johnsongrass (johnsongrass; low-light conditions (10 pm), glufosinate 655 g ai/ha + additive 280 g ai/ha, 15 to 20-cm tall johnsongrass) |
| --- | --- | --- | --- | --- | --- | --- | --- | --- | --- |
| CCOP(=S)(OCC)Oc1nc(Cl)c(Cl)cc1Cl [Chlorpyrifos, O,O-Diethyl O-3,5,6-trichloropyridin-2-yl phosphorothioate] | greatest increase | not eliciting a negative crop response | greatest increase | – | – | – | – | – | – |
| O=C(O)c1cc(Oc2ccc(C(F)(F)F)cc2Cl)ccc1[N+](=O)[O-] [acifluorfen] | – | – | – | negatively impacted at least one of the crops | less | did not alleviate reductions in weed control | did not alleviate reductions in weed control | – | – |
| CCOC(=O)/C=C\C(=O)OCC [diethyl maleate] | – | – | – | – | – | – | – | greatest increase | greatest increase |
| CC(C)N(C)S(=O)(=O)NC(=O)c1cc(-n2c(=O)cc(C(F)(F)F)n(C)c2=O)c(F)cc1Cl [saflufenacil, N′-{2-Chloro-4-fluoro-5-[1,2,3,6-tetrahydro-3-methyl-2,6-dioxo-4-(trifluoromethyl)pyrimidin-1-yl]benzoyl}-N-isopropyl-N-methylsulfamide] | – | – | – | negatively impacted at least one of the crops | less | did not alleviate reductions in weed control | did not alleviate reductions in weed control | – | – |
